Laboratory results published in patent publication US4396615A, “Method of treating androgen-related disorders” (Duke University, priority 1981, dated 1983).
Several values for one entry are separate records, joined by “and”; a condition that tells them apart may be missing. Equal values may be shown once.

Assays:
sebum secretion = conditions: topical administration of a 0.5% solution in aqueous ethanol; cited from earlier work
5α-reductase [1] = conditions: preparations of human benign prostatic hypertrophic tissue; cited from earlier work
5α-reductase [2] = assay: 5α-reductase assay of Moore and Wilson, with or without preincubation of enzyme with inhibitor and NADPH; type: biochemical; conditions: for Picomol Testosterone Reduced/mg protein in 45 min: assay 45 min: progesterone 5 × 10^-8, NADPH 5 × 10^-4, testosterone 5 × 10^-8; for manner of combination with / inactivation of the enzyme: in the presence of the co-factor NADPH; for potency as inhibitor of the enzyme relative to progesterone: assay of Moore and Wilson; for Picomol Testosterone reduced/mg protein in 45 min + SEM: assay 45 min: inhibitor 5 × 10^-8, testosterone 5 × 10^-8, NADPH 5 × 10^-4 M
Source text: Employing the assay of R. J. Moore and J. D. Wilson [Methods in Enzymology, Vol. XXXVI, Academic Press, N.Y., Ed. W. O'Malley and G. Hardman, p.

[3] = tested on: 5α-reductase in cell-culture preparations of human prostate; conditions: cited from earlier work
5α-reductase [4] = conditions: well-known, prior art; cited from earlier work

Q: For CC(=O)[C@H]1CC[C@H]2[C@@H]3CCC4=CC(=O)CC[C@]4(C)[C@H]3CC[C@]12C [progesterone], which “males with acne showing an important decrease in sebum secretion” value (sebum secretion) is on record?
A: The value was 45/53.

Q: And the “conversion of testosterone to dihydrotestosterone” value (5α-reductase [1])?
A: The value was “Inhibition of the conversion of testosterone to dihydrotestosterone”.

Q: And the “Picomol Testosterone Reduced/mg protein in 45 min” value (5α-reductase [2]; 1: preincubation 15 min with progesterone 0 and NADPH 6 × 10^-5)?
A: Its value is 3.91 Picomol Testosterone Reduced/m and 3.41 Picomol Testosterone Reduced/m.

Q: What about the “Picomol Testosterone Reduced/mg protein in 45 min” value (5α-reductase [2]; 2: preincubation 15 min with progesterone 5 × 10^-7 and NADPH 6 × 10^-5) of the same compound?
A: The value was 3.91 Picomol Testosterone Reduced/m and 3.79 Picomol Testosterone Reduced/m.

Q: And the “Picomol Testosterone Reduced/mg protein in 45 min” value (5α-reductase [2]; 4: no preincubation)?
A: Its value is 3.66 Picomol Testosterone Reduced/m and 3.54 Picomol Testosterone Reduced/m.

Q: And the “manner of combination with / inactivation of the enzyme” value (5α-reductase [2])?
A: The value was “competitive and reversible”.

Q: What about the “enzyme inactivation on preincubation” value (5α-reductase [2]; preincubation of enzyme with compound and NADPH) of the same compound?
A: Its value is “does not result in enzyme inactivation”.

Q: What about the “effect on growth of the tissue” value [3] of the same compound?
A: Its value is “inhibiting growth of the tissue”.

Q: What about the “inhibition of the enzyme in cell-culture preparations of human prostate” value [3] of the same compound?
A: Its value is “strongly inhibits the enzyme”.

Q: What about the “type of inhibition of the enzyme” value (5α-reductase [4]) of the same compound?
A: Its value is “reversible and competitive inhibitor”.

Q: Which “potency as inhibitor of the enzyme relative to progesterone” value (5α-reductase [2]) does the source give for C=C1C[C@H]2[C@@H]3CC[C@H](C(C)=O)[C@@]3(C)CC[C@@H]2[C@@]2(C)CCC(=O)C=C12 [6-methyleneprogesterone] here?
A: Its value is “equipotent with progesterone”.

Q: With C=C1C[C@@H]2[C@H](CC[C@@]3(C)[C@H]2CC[C@]3(OC(C)=O)C(C)=O)[C@@]2(C)CCC(=O)C=C12 [17α-acetoxy-6-methyleneprogesterone] as the compound, how does the “Picomol Testosterone reduced/mg protein in 45 min + SEM” value (5α-reductase [2]; A: preincubation 15 min with inhibitor 5 × 10^-7 M and NADPH 6 × 10^-5 M) read?
A: The value was 0.71 ± 0.018 Picomol Testosterone reduced/m.

Q: What about the “Picomol Testosterone reduced/mg protein in 45 min + SEM” value (5α-reductase [2]; B: preincubation 15 min with inhibitor 0 and NADPH 6 × 10^-5 M) of the same compound?
A: Its value is 3.0 ± 0.26 Picomol Testosterone reduced/m.

Q: What about the “Picomol Testosterone reduced/mg protein in 45 min + SEM” value (5α-reductase [2]; C: preincubation 15 min with inhibitor 0 and NADPH 0) of the same compound?
A: Its value is 2.83 ± 0.09 Picomol Testosterone reduced/m.

Q: And the “Picomol Testosterone reduced/mg protein in 45 min + SEM” value (5α-reductase [2]; D: preincubation 15 min with inhibitor 5 × 10^-7 M and NADPH 0)?
A: Its value is 2.63 ± 0.18 Picomol Testosterone reduced/m.

Q: What about the “Picomol Testosterone reduced/mg protein in 45 min + SEM” value (5α-reductase [2]; F: no preincubation) of the same compound?
A: The value was 3.14 ± 0.20 Picomol Testosterone reduced/m.

Q: What about the “potency as inhibitor of the enzyme relative to progesterone” value (5α-reductase [2]) of the same compound?
A: The value was “equipotent with progesterone”.

Q: What about the Ki (5α-reductase [2]; first phase, from plot of t1/2 against 1/[Inhibitor] (FIG. 2), read-out: Ki of reversible combination of enzyme and inhibitor) of the same compound?
A: Its Ki is 1250 nM.

Q: What about the “manner of combination with / inactivation of the enzyme” value (5α-reductase [2]) of the same compound?
A: The value was “irreversible manner”.

Q: What about the “time course of inactivation of the enzyme” value (5α-reductase [2]; incubation of enzyme with NADPH and inhibitor (FIG. 1)) of the same compound?
A: The value was “pseudo first-order kinetics”.

Q: What about the enzyme activity lost (5α-reductase [2]; preincubation of enzyme with compound and NADPH, diluted tenfold, then assayed) of the same compound?
A: Its enzyme activity lost is 75%.

Q: What about the “rate constant of irreversible combination (kcat)” value (5α-reductase [2]; second phase, enzyme-inhibitor complex rendered inactive) of the same compound?
A: The value was 0.0048 s⁻¹.
